Data taken from ChEMBL document CHEMBL5096212, “Development of a water-soluble ryanodine receptor 1 inhibitor” (Bioorg Med Chem, 2022).
pEC50: −log10 of the molar value. Converted amounts (≈) assume the structure as drawn.

What was measured:
[1] = Solubility of the compound in 30% EtOH/PBS measured after 48 hrs by HPLC analysis; format: physicochemical
[2] = Inhibition of RyR1 R2163C mutant (unknown origin) expressed in HEK293 cells measured every 10s for 300s by R-CEPIA1er based fluorescence analysis; format: cell-based, Homo sapiens
[3] = Solubility of the compound in saline measured after 48 hrs by HPLC analysis; format: physicochemical; details: buffer

Structure (SMILES)	solubility at 48 h [1] [µg/mL]	pEC50 [2]	solubility [3] [µg/mL]
CCCCCCCCn1cc(C(=O)O)c(=O)c2cc3c(cc21)OCO3	4.7 (≈ 13.6 µM)	7.92	–
CCCCCCCCn1cc(C(=O)[O-])c(=O)c2cnc(OC)cc21.[Na+]	–	–	27
CCCCCCCn1cc(C(=O)[O-])c(=O)c2cc3c(cc21)OCO3.[Na+]	–	–	3.9
CCCCCCCCn1cc(C(=O)O)c(=O)c2cnc(OC)cc21	414 (≈ 1250 µM)	7.17	–
CCCCCCCn1cc(C(=O)O)c(=O)c2cc3c(cc21)OCO3	54 (≈ 163 µM)	7.96	–
CCCCCCCCn1cc(C(=O)O)c(=O)c2c(OC)nccc21	–	5.77	–
CCCCCCCn1cc(C(=O)O)c(=O)c2cnc(OC)cc21	–	6.28	–
CCCCCCCCn1cc(C(=O)[O-])c(=O)c2cc3c(cc21)OCO3.[Na+]	–	–	0.84
CCCCCCn1cc(C(=O)O)c(=O)c2cc3c(cc21)OCO3	–	7.15	–
